Results on 1 compound are retold here after patent publication US12122833B2, “Combination therapies of HDAC inhibitors and PD-1 inhibitors” (HUYABIO International, LLC, priority 2016, dated 2024).

For one experiment, the target named is T1, HDAC 8 (Homo sapiens, UniProt Q9BY41).
T1 sequence (Q9BY41 1-377): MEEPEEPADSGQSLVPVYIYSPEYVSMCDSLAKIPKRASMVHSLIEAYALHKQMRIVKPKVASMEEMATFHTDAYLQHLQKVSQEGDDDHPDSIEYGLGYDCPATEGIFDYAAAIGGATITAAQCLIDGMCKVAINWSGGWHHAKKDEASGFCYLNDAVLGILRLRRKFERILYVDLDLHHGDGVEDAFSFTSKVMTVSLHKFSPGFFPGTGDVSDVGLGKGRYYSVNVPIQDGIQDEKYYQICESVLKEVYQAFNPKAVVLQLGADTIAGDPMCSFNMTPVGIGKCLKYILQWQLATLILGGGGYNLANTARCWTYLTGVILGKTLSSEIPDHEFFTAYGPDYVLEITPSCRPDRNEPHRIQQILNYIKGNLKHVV
Conditions: cited from earlier work.

The target in the next experiment is T2, HDAC 11 (Homo sapiens, UniProt Q96DB2).
T2 sequence (Q96DB2 1-347): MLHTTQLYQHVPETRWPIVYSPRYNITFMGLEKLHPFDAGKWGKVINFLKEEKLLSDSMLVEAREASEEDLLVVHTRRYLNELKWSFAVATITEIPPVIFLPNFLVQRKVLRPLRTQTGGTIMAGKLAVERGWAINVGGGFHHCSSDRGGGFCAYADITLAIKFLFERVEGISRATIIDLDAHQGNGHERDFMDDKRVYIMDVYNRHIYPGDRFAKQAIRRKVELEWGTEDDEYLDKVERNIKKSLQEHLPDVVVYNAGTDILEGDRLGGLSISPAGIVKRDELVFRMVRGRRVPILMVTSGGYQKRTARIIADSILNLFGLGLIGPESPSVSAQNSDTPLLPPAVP
The note with it: cited from earlier work.

The test system of experiment [1] is 4T1 murine mammary carcinoma. The experiment can be described thus: Example 4: lung metastatic foci count, orthotopic 4T1 murine mammary carcinoma in BALB/c mice. In kind it is in vivo, mouse. Conditions: day 14; HBI-8000 50 mg/kg p.o. qd×13; anti-PD-1 5 mg/kg i.p. biwk×2; vs vehicle control (35.0±2.17 foci). The procedure: In this Example 4, antitumor responses induced by HBI-8000, administered alone and in combination with anti-PD-1 RMP1-14 (anti-PD-1) were characterized in the 4T1 murine mammary carcinoma xenograft model in BALB/c mice. The impact of these therapies on lung metastasis was evaluated.
Treatments began on Day (D) 1 in BALB/c mice bearing established 4T1 tumors. HBI-8000 was administered orally (p.o.) and anti-PD-1 was administered intraperitoneally (i.p.), at a single dose level. Test agents were administered alone and in combination with HBI-8000. Control animals received vehicle. The study ended on D14 as the endpoint for metastatic foci was reached. Treatment response was determined based on metastases counts taken from animals remaining on D14.
In Vivo Implantation and Tumor Growth: 4T1 tumor cells were harvested during exponential growth and resuspended in PBS. […] Tumor growth was monitored as the average size of tumors approached the target range of 80-120 mm3. […]
Results were analyzed by counting the lung metastatic foci on D14, the last day of the study. […] Percent inhibition was defined as the difference between the number of metastatic foci of the designated control group and the number of metastatic foci of the drug-treated group, expressed as a percentage of the number of metastatic foci of the designated control group: […]

Take `Nc1cc(F)ccc1NC(=O)c1ccc(CNC(=O)/C=C/c2cccnc2)cc1` [HBI-8000, N-(2-amino-4-fluorophenyl)-4-[[[(2E)-1-oxo-3-(3-pyridinyl)-2-propen-1-yl]amino]methyl]benz amide]: the “activity at HDAC 8” value at HDAC 8 is “has activity”. For the same compound, the “activity at HDAC 8 compared with Entinostat” value at HDAC 8 (reported by Ning et al.) is listed as “more active than Entinostat”. On HDAC 11, the “activity at HDAC 11” value is “has activity”. At HDAC 11 (reported by Ning et al.), the “activity at HDAC 11 compared with Entinostat” value was “more active than Entinostat”. The “inhibition of lung metastatic foci” value in experiment [1] is reported as −26%.
